Test results published in ChEMBL document CHEMBL1201862, “PubChem BioAssay data set” (2004).
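In this assay, cells in 96-well plates receive the compound at five concentrations for 48 hours. Endpoints are linearly interpolated between the surrounding concentrations. GI50 marks 50% less growth.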 Active and inactive are the calls of the source. Cut-off read from the data, not from the text of the source: active = GI50 up to about 1.1 µM and inactive = higher.

Experiments:
Test in all cases: DTP human tumour cell line panel, 48 h
[1] = tested on: 786-0
[2] = tested on: A498
[3] = tested on: A549
[4] = tested on: ACHN
[5] = tested on: CAKI-1
[6] = tested on: CCRF-CEM
[7] = tested on: COLO 205
[8] = tested on: DU-145
[9] = tested on: EKVX
[10] = tested on: HCC 2998
[11] = tested on: HCT-116
[12] = tested on: HCT-15
[13] = tested on: HL-60
[14] = tested on: HOP-62
[15] = tested on: HOP-92
[16] = tested on: HT-29
[17] = tested on: Hs-578T
[18] = tested on: IGROV-1
[19] = tested on: K562
[20] = tested on: KM12
[21] = tested on: LOX IMVI
[22] = tested on: M14
[23] = tested on: MCF7
[24] = tested on: MDA-MB-231
[25] = tested on: MDA-MB-435
[26] = tested on: MDA-N
[27] = tested on: MOLT-4
[28] = tested on: Malme-3M
[29] = tested on: NCI-H226
[30] = tested on: NCI-H23
[31] = tested on: NCI-H460
[32] = tested on: NCI-H522
[33] = tested on: NCI/ADR-RES
[34] = tested on: OVCAR-3
[35] = tested on: OVCAR-4
[36] = tested on: OVCAR-8
[37] = tested on: PC-3
[38] = tested on: RPMI-8226
[39] = tested on: RXF 393
[40] = tested on: SF-268
[41] = tested on: SF-295
[42] = tested on: SF-539
[43] = tested on: SK-MEL-28
[44] = tested on: SK-MEL-2
[45] = tested on: SK-MEL-5
[46] = tested on: SK-OV-3
[47] = tested on: SN12C
[48] = tested on: SNB-19
[49] = tested on: SNB-75
[50] = tested on: SR
[51] = tested on: SW-620
[52] = tested on: T47D
[53] = tested on: TK-10
[54] = tested on: U-251
[55] = tested on: UACC-257
[56] = tested on: UACC-62
[57] = tested on: UO-31

`C/C(CC(O)(C(F)(F)F)C(F)(F)F)=N\NC(N)=S` was tested, and the GI50 [1] was > 10 µM (inactive), the GI50 [2] was > 10 µM (inactive) and the GI50 [3] was > 10 µM (inactive). For the same molecule, the GI50 [4] was > 10 µM (inactive), the GI50 [5] was > 10 µM (inactive) and the GI50 [6] was > 10 µM (inactive). The GI50 [7] was > 10 µM (inactive), the GI50 [8] was > 10 µM (inactive) and the GI50 [9] was > 10 µM (inactive). The GI50 [10] was > 10 µM (inactive), the GI50 [11] was > 10 µM (inactive) and the GI50 [12] was over 10 µM. The GI50 [13] was > 10 µM (inactive), the GI50 [14] was > 10 µM (inactive) and the GI50 [15] was > 10 µM (inactive). The GI50 [16] was > 10 µM (inactive), the GI50 [17] was > 10 µM (inactive) and the GI50 [18] was > 10 µM (inactive). For the same molecule, the GI50 [19] was > 10 µM (inactive), the GI50 [20] was > 10 µM (inactive) and the GI50 [21] was > 10 µM (inactive). The GI50 [22] was > 10 µM (inactive), the GI50 [23] was > 10 µM (inactive) and the GI50 [24] was > 10 µM (inactive). The GI50 [25] was > 10 µM (inactive), the GI50 [26] was > 10 µM (inactive) and the GI50 [27] was > 10 µM (inactive). For the same molecule, the GI50 [28] was > 10 µM (inactive), the GI50 [29] was > 10 µM (inactive) and the GI50 [30] was > 10 µM (inactive). For the same molecule, the GI50 [31] was > 10 µM (inactive), the GI50 [32] was > 10 µM (inactive) and the GI50 [33] was > 10 µM (inactive). The GI50 [34] was > 10 µM (inactive), the GI50 [35] was > 10 µM (inactive) and the GI50 [36] was > 10 µM (inactive). For the same molecule, the GI50 [37] was > 10 µM (inactive), the GI50 [38] was > 10 µM (inactive) and the GI50 [39] was > 10 µM (inactive). For the same molecule, the GI50 [40] was > 10 µM (inactive), the GI50 [41] was > 10 µM (inactive) and the GI50 [42] was > 10 µM (inactive). For the same molecule, the GI50 [43] was > 10 µM (inactive), the GI50 [44] was > 10 µM (inactive) and the GI50 [45] was > 10 µM (inactive). The GI50 [46] was > 10 µM (inactive), the GI50 [47] was > 10 µM (inactive) and the GI50 [48] was > 10 µM (inactive). The GI50 [49] was > 10 µM (inactive), the GI50 [50] was > 10 µM (inactive) and the GI50 [51] was > 10 µM (inactive). For the same molecule, the GI50 [52] was > 10 µM (inactive), the GI50 [53] was > 10 µM (inactive) and the GI50 [54] was > 10 µM (inactive). The GI50 [55] was > 10 µM (inactive), the GI50 [56] was > 10 µM (inactive) and the GI50 [57] was > 10 µM (inactive).
